The target of the experiment is T1, NL20 human bronchial epithelial cells expressing human Z-AAT (Homo sapiens, UniProt P01009, E366K).
T1 construct: expressed in transfected cells; host or cells: NL20 human bronchial epithelial cells (NL20-SI line, doxycycline added)
The experiment can be described thus: AAT Function Assay (MSD Assay NL20-SI Cell Line). Conditions: functionally active AAT (AAT-hNE complex) in supernatant of NL20 cells expressing human Z-AAT. The class given is cell-based. The gist of the method:
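NL20 cells expressing Z-AAT, seeded 16,000 cells/well, received compound with doxycycline (0.1 μM final) and were incubated overnight at 37° C. Supernatants, diluted 45-fold in total, reacted with excess human neutrophil elastase; AAT-elastase complex captured on anti-AAT plates, detected with Sulfo-tagged anti-elastase by MSD electrochemiluminescence, and quantified against M-AAT standards (0.156-320 ng/mL).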

pEC50: −log10 of the molar value. Like-named read-outs stand apart in the source and are kept apart here. Where only a bound is given, the exact number is not on record here.

T1 sequence (P01009 25-418 E366K): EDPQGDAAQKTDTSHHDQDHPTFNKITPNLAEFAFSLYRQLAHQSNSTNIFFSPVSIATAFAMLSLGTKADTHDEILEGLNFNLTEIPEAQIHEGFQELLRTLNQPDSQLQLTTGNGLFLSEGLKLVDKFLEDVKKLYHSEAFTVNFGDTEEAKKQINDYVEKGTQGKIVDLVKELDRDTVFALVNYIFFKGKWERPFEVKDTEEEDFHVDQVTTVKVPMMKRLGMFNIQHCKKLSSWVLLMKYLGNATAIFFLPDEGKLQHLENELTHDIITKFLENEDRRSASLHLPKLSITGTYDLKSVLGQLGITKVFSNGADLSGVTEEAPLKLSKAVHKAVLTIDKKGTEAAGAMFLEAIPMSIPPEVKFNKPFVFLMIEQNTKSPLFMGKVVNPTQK

The term pEC50 denotes the EC50 on a negative log10 scale, so that one unit is a factor of ten. `O=C(O)C1(Cc2c(C3CCOCC3)n(-c3ccc(F)cc3)c3cc4cn[nH]c4cc23)CC1` [Compound 111]: the pEC50 (read-out: NL20 Func. (EC50)) is 5.52 to 5.94. Same read-out and setting: in the case of `CC(C)c1c(CCC(=O)O)c2nc3[nH]ncc3cc2n1-c1ccc(F)cc1` [Compound 203, 3-[10-(4-fluorophenyl)-11-isopropyl-2,4,5,10-tetrazatricyclo[7.3.0.03,7]dodeca-1,3(7),5,8,11-pentaen-12-yl]propanoic Acid] it was less than 5.52; in that of `O=C(O)C1CC2(C1)CC(c1c(C3CCOC3)n(-c3ccc(F)cc3)c3cc4cn[nH]c4cc13)C2` (racemic) [Compound 140, 6-[5-(4-fluorophenyl)-6-tetrahydrofuran-3-yl-1H-pyrrolo[2,3-f]indazol-7-yl]spiro[3.3]heptane-2-carboxylic acid], less than 5.52; in that of `O=C(O)[C@H]1C[C@@H](Cc2c(C3CCOCC3)n(-c3ccc(F)c(F)c3)c3cc4cn[nH]c4cc23)C1` (single isomer, unassigned) [Compound 72], 5.52 to 5.94. Still for that read-out and setting: with `Cc1cc(-n2c(C3CCOCC3)c(CCC(=O)O)c3cc4[nH]ncc4cc32)ccc1F` [Compound 86] the figure was less than 5.52; with `[2H]C([2H])(C(=O)O)C([2H])([2H])c1c(C(C)C)n(-c2ccc(F)cc2)c2cc3cn[nH]c3cc12` [Compound 171, 2,2,3,3-tetradeuterio-3-[5-(4-fluorophenyl)-6-isopropyl-1H-pyrrolo[2,3-f]indazol-7-yl]propanoic Acid], greater than 5.94. Same read-out and setting: with `O=C(O)[C@H]1CC[C@H](Cc2c(C3CCOCC3)n(-c3ccc(F)c(Cl)c3)c3cc4cn[nH]c4cc23)CC1` [Compound 84] the figure was 5.52 to 5.94; with `O=C(O)C1CC(Cc2c(C3CCOCC3)n(-c3ccc(F)c(Cl)c3)c3cc4cn[nH]c4cc23)C1` (single isomer, unassigned) [Compound 80], greater than 5.94. In the case of `O=C(OCc1ccccc1)N1CCC(Cc2c(C3CCOCC3)n(-c3ccc(F)cc3)c3cc4cn[nH]c4cc23)CC1` [Compound 152, Benzyl 4-[[5-(4-fluorophenyl)-6-tetrahydropyran-4-yl-1H-pyrrolo[2,3-f]indazol-7-yl]methyl]piperidine-1-carboxylate], under “read-out: NL20 Func. (EC50)”, the pEC50 was 5.52 to 5.94.

`CC(C)c1c(CC2(C(=O)O)CC2)c2cc3[nH]ncc3cc2n1-c1cccc(C(F)(F)F)c1` [Compound 39, 1-[[6-isopropyl-5-[3-(trifluoromethyl)phenyl]-1H-pyrrolo[2,3-f]indazol-7-yl]methyl]cyclopropanecarboxylic Acid]: the negative logarithm of the EC50 (pEC50) (read-out: NL20 Func. (EC50)) is 5.52 to 5.94.

For the compound `CC(=O)N1CCC(Cc2c(C3CCOCC3)n(-c3ccc(F)cc3)c3cc4cn[nH]c4cc23)CC1` [Compound 153, 1-[4-[[5-(4-fluorophenyl)-6-tetrahydropyran-4-yl-1H-pyrrolo[2,3-f]indazol-7-yl]methyl]-1-piperidyl]ethanone], the pEC50 (read-out: NL20 Func. (EC50)) was 5.52 to 5.94. For `Cc1cc(-n2c(C(C)C)c(C3CC4(CC(C(=O)O)C4)C3)c3cc4[nH]nc(C)c4cc32)ccc1F` (single isomer, unassigned) [Compound 57, 6-[5-(4-fluoro-3-methyl-phenyl)-6-isopropyl-3-methyl-1H-pyrrolo[2,3-f]indazol-7-yl]spiro[3.3]heptane-2-carboxylic acid], under “read-out: NL20 Func. (EC50)”, the pEC50 was 5.52 to 5.94. The same measure, in the same setting: in the case of `Cc1cc(-n2c(C(C)C)cc3c(F)c4[nH]ncc4cc32)ccc1F` [Compound 50, 8-fluoro-5-(4-fluoro-3-methyl-phenyl)-6-isopropyl-1H-pyrrolo[2,3-f]indazole] it was less than 5.52; in that of `CC(C)(CC#N)c1c(CCC(N)=O)c2cc3[nH]ncc3cc2n1-c1ccc(F)cc1` [Compound 191, 3-[6-(2-cyano-1,1-dimethyl-ethyl)-5-(4-fluorophenyl)-1H-pyrrolo[2,3-f]indazol-7-yl]propanamide], less than 5.52; in that of `Cc1cc(-n2c(C3CCOCC3)c(CC3CC3C(=O)O)c3cc4[nH]ncc4cc32)ccc1F` (single isomer, unassigned) [Compound 102], less than 5.52.

Consider `CC(C)c1c(CC2(C(=O)O)CC2)c2cc3[nH]ncc3cc2n1-c1ccc(F)cc1` [Compound 33, 1-[[5-(4-fluorophenyl)-6-isopropyl-1H-pyrrolo[2,3-f]indazol-7-yl]methyl]cyclopropanecarboxylic Acid], for which, for the setting “read-out: NL20 Func. (EC50)”, the pEC50 is greater than 5.94.

Consider `O=C(O)C1CC2(C1)CC(c1c(C3CCOCC3)n(-c3ccc(F)c(F)c3)c3cc4cn[nH]c4c(Br)c13)C2` (centres unmarked) [Compound 134, 6-[8-bromo-5-(3,4-difluorophenyl)-6-tetrahydropyran-4-yl-1H-pyrrolo[2,3-f]indazol-7-yl]spiro[3.3]heptane-2-carboxylic Acid], for which, for the setting “read-out: NL20 Func. (EC50)”, the pEC50 was greater than 5.94. Turning to `O=C(O)[C@H]1CC[C@H](c2c(C3CCOCC3)n(-c3ccc(F)cc3)c3cc4cn[nH]c4cc32)CC1` [Compound 120], the pEC50 (read-out: NL20 Func. (EC50)) is greater than 5.94. Consider `Cc1cc(-n2c(C(C)C)c(S(C)(=O)=O)c3cc4[nH]nc(F)c4cc32)ccc1F` [Compound 47, 3-fluoro-5-(4-fluoro-3-methyl-phenyl)-6-isopropyl-7-methylsulfonyl-1H-pyrrolo[2,3-f]indazole], for which the pEC50 (read-out: NL20 Func. (EC50)) is less than 5.52. As for `O=C(O)C1CC2(C1)CC(c1c(C3CCOCC3)n(-c3ccc(F)c(Cl)c3)c3cc4cn[nH]c4cc13)C2` (racemic) [Compound 76], the pEC50 (read-out: NL20 Func. (EC50)) was greater than 5.94.

Consider `O=C(O)[C@H]1C[C@@H](c2c(C3CCOCC3)n(-c3ccc(F)cc3)c3cc4cn[nH]c4cc32)C1` [Compound 112], for which the pEC50 (read-out: NL20 Func. (EC50)) was less than 5.52. Regarding `CC1(C(=O)O)CC(c2c(C3CCOCC3)n(-c3ccc(F)c(F)c3)c3cc4cn[nH]c4cc23)C1` (single isomer, unassigned) [Compound 69], the negative logarithm of the EC50 (pEC50) (read-out: NL20 Func. (EC50)) was less than 5.52.

`O=C(O)[C@H]1C[C@H](Cc2c(C3CCOCC3)n(-c3ccc(F)c(F)c3)c3cc4cn[nH]c4cc23)C1` (single isomer, unassigned) [Compound 71]: the pEC50 (read-out: NL20 Func. (EC50)) was less than 5.52. Under “NL20 Func. (EC50)”, `CC(C)c1c(CCC(=O)O)c2cc3[nH]ncc3nc2n1-c1ccc(F)cc1` [Compound 202, 3-[4-(4-fluorophenyl)-5-isopropyl-2,4,10,11-tetrazatricyclo[7.3.0.03,7]dodeca-1,3(7),5,8,11-pentaen-6-yl]propanoic Acid] showed a negative-log EC50 (pEC50) of less than 5.52.

As for `CC1(c2c(S(C)(=O)=O)c3cc4[nH]ncc4cc3n2-c2ccc(F)cc2)COC1` [Compound 197, 5-(4-fluorophenyl)-6-(3-methyloxetan-3-yl)-7-methylsulfonyl-1H-pyrrolo[2,3-f]indazole], the pEC50 (read-out: NL20 Func. (EC50)) is less than 5.52. Still for that read-out and setting: in the case of `CCS(=O)(=O)CCc1c(C2CCOCC2)n(-c2ccc(F)cc2)c2cc3cn[nH]c3cc12` [Compound 158, 7-(2-ethylsulfonylethyl)-5-(4-fluorophenyl)-6-tetrahydropyran-4-yl-1H-pyrrolo[2,3-f]indazole] it was less than 5.52; in that of `O=C(O)C1CCC(Cc2c(C3CCOCC3)n(-c3ccc(F)c(Cl)c3)c3cc4cn[nH]c4cc23)CC1` (mixture of isomers) [Compound 83], 5.52 to 5.94; in that of `CC(C)c1c(S(C)(=O)=O)c2cc3[nH]ncc3cc2n1-c1ccc(F)cc1` [Compound 30, 5-(4-fluorophenyl)-6-isopropyl-7-methylsulfonyl-1H-pyrrolo[2,3-f]indazole], less than 5.52. On the same count and under the same terms, in the case of `C[C@]1(C(=O)O)C[C@@H](c2c(C3CCOCC3)n(-c3ccc(F)cc3)c3cc4cn[nH]c4cc32)C1` (single isomer, unassigned) [Compound 114] it was less than 5.52.

For the compound `C=C(C)c1c(CCC(=O)O)c2cc3[nH]ncc3cc2n1-c1ccc(F)cc1` [Compound 192, 3-[5-(4-fluorophenyl)-6-isopropenyl-1H-pyrrolo[2,3-f]indazol-7-yl]propanoic Acid], the pEC50 (read-out: NL20 Func. (EC50)) is 5.52 to 5.94. Still for that read-out and setting: in the case of `O=C(O)[C@H]1CC[C@H](c2c(C3CCOCC3)n(-c3ccc(F)c(F)c3)c3cc4cn[nH]c4cc32)CC1` [Compound 75, (1r,4r)-4-(5-(3,4-difluorophenyl)-6-(tetrahydro-2H-pyran-4-yl)-1,5-dihydropyrrolo[2,3-f]indazol-7-yl)cyclohexane-1-carboxylic Acid] it was greater than 5.94; in that of `[2H]c1n[nH]c2c([2H])c3c(CC([2H])([2H])C(=O)O)c(C([2H])(C)C)n(-c4ccc(F)cc4)c3c([2H])c12` [Compound 189, 2,2-dideuterio-3-[3,4,8-trideuterio-6-(1-deuterio-1-methyl-ethyl)-5-(4-fluorophenyl)-1H-pyrrolo[2,3-f]indazol-7-yl]propanoic Acid], 5.52 to 5.94. On the same count and under the same terms, in the case of `O=C(O)C1CC2(C1)CC(c1c(C3CCOC3)n(-c3ccc(F)cc3)c3cc4cn[nH]c4cc13)C2` (single isomer, unassigned) [Compound 141, 6-[5-(4-fluorophenyl)-6-tetrahydrofuran-3-yl-1H-pyrrolo[2,3-f]indazol-7-yl]spiro[3.3]heptane-2-carboxylic acid] it was less than 5.52; in that of `CC(C)c1c(-c2ccc(F)cc2)c2cc3cn[nH]c3cc2n1CCC(=O)O` [Compound 205, 3-[5-(4-fluorophenyl)-6-isopropyl-1H-pyrrolo[3,2-f]indazol-7-yl]propanoic Acid], 5.52 to 5.94. The same measure, in the same setting: in the case of `Cc1cc(-n2c(C3CCOCC3)c([C@H]3C[C@H](CC(=O)O)C3)c3cc4[nH]ncc4cc32)ccc1F` (single isomer, unassigned) [Compound 94] it was 5.52 to 5.94.

In the case of `COCC(C)(C)c1c(CCC(N)=O)c2cc3[nH]ncc3cc2n1-c1ccc(F)cc1` [Compound 183], the pEC50 (read-out: NL20 Func. (EC50)) was less than 5.52. With `CC(C)c1c(CCC(=O)O)c2cc3nn[nH]c3cc2n1-c1ccc(F)cc1` [Compound 214, 3-(5-(4-fluorophenyl)-6-isopropyl-3,5-dihydro-[1,2,3]triazolo[4,5-f]indol-7-yl)propanoic Acid], the pEC50 (read-out: NL20 Func. (EC50)) was less than 5.52. The same measure, in the same setting: with `COC(=O)C1CC2(C1)CC(c1c(C3CCOCC3)n(-c3ccc(F)c(C)c3)c3cc4cn[nH]c4cc13)C2` (racemic) [Compound 89] the figure was less than 5.52.

(Values after patent publication US11623924B2, “Modulators of alpha-1 antitrypsin” (Vertex Pharmaceuticals Incorporated, priority 2018, dated 2023).)
